Experimental data reported in patent US7329665B2, “Quinazolinone derivative” (Dainippon Sumitomo Pharma Co., Ltd., priority 2001, dated 2008).

System: rhythmic contractions of the bladder
Assay: Effect on rhythmic contractions of bladder (cystometry in urethane-anesthetized rats, i.v. administration)
Assay type: in vivo
Conditions: female SD-rats under urethane anesthesia, intravenous, ascending doses in 10% PEG, relative to vehicle; for Contractile amplitude: ED30: mean amplitude of bladder contraction during 10-minute period after administration; for Contractile frequency: ED30: mean frequency of bladder contraction during 10-minute period after administration
Protocol: Effect on Rhythmic Contractions of Bladder This test was carried out by some modification of the method of Hedge et al. [Hedge S S. Choppin A. Bonhaus D. Briaud S. Loeb M. Moy T M. Loury D. Eglen R M., British Journal of Pharmacology. 120(8):1409-18, 1997]. Female SD-rats were subjected to abdominal midline incision under urethane anesthesia (0.6 g/kg, s.c. and i.p.), the ureters were ligated, and its kidney side was cut off. A polyethylene cannula was inserted from the urethra into the bladder and the urethra was ligated. The other end of the cannula was connected to a three way connector, to which a constant infusion pump having a 20 ml attached syringe and a pressure transducer for cystometry were also connected. A cannula for administration of a test sample was inserted into the jugular vein and a cannula for measurement of blood pressure and heart rate was inserted into the carotid artery. The intravesical pressure, blood pressure and heart rate were continuously recorded on a polygraph. Physiological saline was infused until rhythmic contractions of the bladder were observed, and after having confirmed stable rhythmic contractions of the bladder, vehicle (10% PEG) and solutions of a test sample dissolved in 10% PEG were administered intravenously in turn from its lower dose. The mean of amplitude and frequency of bladder contraction during a 10-minute period after administration were measured at each dose level, and their rates of change relative to the values obtained when the vehicle alone was administered were calculated, thereby determining ED30 values for the contractile amplitude and the contractile frequency, respectively. It is apparent from Table 1 that the compounds of the present invention depressed not only the contractile amplitude but also the contractile frequency.

| Compound | Contractile amplitude: ED30 [mg/kg] | Contractile frequency: ED30 [mg/kg] |
| --- | --- | --- |
| CC(C)Oc1cccc(CN2CCC(N3C(=O)Nc4ccccc4C3c3ccccc3)CC2)c1 (stereo not shown) [Example 2-3, Optically Active Form of 3-[1-(3-isopropoxyphenylmethyl)piperidin-4-yl]-4-phenyl-3,4-dihydro-2(1H)-quinazolinone] | 1.10 | 1.54 |
| O=C1Nc2ccccc2C(c2ccccc2)N1C1CCN(Cc2cccc(OCC(F)(F)F)c2)CC1 (stereo not shown) [Example 2-4, Optically Active Form of 3-{1-[3-(2,2,2-trifluoroethoxy)phenylmethyl]piperidin-4-yl}-4-phenyl-3,4-dihydro-2(1H)-quinazolinone] | 1.42 | 1.35 |
| Cc1cccc(CN2CCC(N3C(=O)Nc4ccccc4C3C(C)C)CC2)n1 (single isomer, unassigned; (+)) [Example 3, (+)-4-isopropyl-3-{1-[(6-methyl-2-pyridinyl)methyl]piperidin-4-yl}-3,4-dihydro-2(1H)-quinazolinone] | 0.94 | 1.79 |
| CCCc1cccc(CN2CCC(N3C(=O)Nc4ccccc4C3c3ccccc3)CC2)c1 (stereo not shown) [Example 2-1, Optically Active Form of 3-[1-(3-propylphenylmethyl)piperidin-4-yl]-4-phenyl-3,4-dihydro-2(1H)-quinazolinone] | 1.09 | 0.70 |
| O=C1Nc2ccccc2C(c2ccccc2)N1C1CCN(Cc2cccc(OC(F)(F)F)c2)CC1 (single isomer, unassigned; (+)) [Example 1, (+)-3-{1-[3-(trifluoromethoxy)benzyl]piperidin-4-yl}-4-phenyl-3,4-dihydro-2(1H)-quinazolinone] | 1.71 | 1.31 |
